Test results as given in patent US6087131A, “β-glucosidase from filamentous fungi, and uses thereof” (Institut National de la Recherche Agronomique - I.N.R.A., priority 1995, dated 2000).

Assays:
Assay type in all cases: biochemical
[1] = tested on: β-glucosidase BGI of A. oryzae (CBS 12559), molecular mass greater than 130,000; assay: Inhibition of β-glucosidase BGI activity by glucose or δ-gluconolactone, PNPG as substrate
Method: (§1) The assay of the β-glucosidase activity is carried out by incubating, for 20 minutes at 40° C., 1 volume of enzymatic sample with 1 volume of p-nitrophenol β-D-glucoside (PNPG) (4 mM in 100 mM acetate buffer, pH 4.4). The quantity of PNP (pnitrophenol) liberated is estimated by adding 6 volumes of 0.1 M Na2 CO3 and monitoring the absorbance reading at 400 nm. The enzymatic activity is expressed in nanokatals per ml (nkat/ml) of enzymatic solution. One nanokatal corresponds to the number of nanomoles of PNP liberated per second under the abovementioned conditions.
(§2) The residual enzymatic activity is estimated after incubating the mixture for 20 minutes at 40° C.

[2] = tested on: β-glucosidase BGII of A. oryzae (CBS 12559), exocellular, molecular mass about 30,000; assay: Inhibition of β-glucosidase BGII activity by glucose or δ-gluconolactone, PNPG as substrate; conditions: PNPG 4 mM, 20 minutes at 40° C.
Method: as §1, §2

[3] = target: T1, β-glucosidase of A. niger purified from the KLERZYME enzymatic preparation (Aspergillus niger, UniProt A2RAL4); assay: Inhibition of KLERZYME β-glucosidase activity by glucose or δ-gluconolactone, PNPG as substrate
T1 construct: purchased GIST-BROCADES, SECLIN, FRANCE
Method: as §1, §2

T1 sequence (A2RAL4 20-860): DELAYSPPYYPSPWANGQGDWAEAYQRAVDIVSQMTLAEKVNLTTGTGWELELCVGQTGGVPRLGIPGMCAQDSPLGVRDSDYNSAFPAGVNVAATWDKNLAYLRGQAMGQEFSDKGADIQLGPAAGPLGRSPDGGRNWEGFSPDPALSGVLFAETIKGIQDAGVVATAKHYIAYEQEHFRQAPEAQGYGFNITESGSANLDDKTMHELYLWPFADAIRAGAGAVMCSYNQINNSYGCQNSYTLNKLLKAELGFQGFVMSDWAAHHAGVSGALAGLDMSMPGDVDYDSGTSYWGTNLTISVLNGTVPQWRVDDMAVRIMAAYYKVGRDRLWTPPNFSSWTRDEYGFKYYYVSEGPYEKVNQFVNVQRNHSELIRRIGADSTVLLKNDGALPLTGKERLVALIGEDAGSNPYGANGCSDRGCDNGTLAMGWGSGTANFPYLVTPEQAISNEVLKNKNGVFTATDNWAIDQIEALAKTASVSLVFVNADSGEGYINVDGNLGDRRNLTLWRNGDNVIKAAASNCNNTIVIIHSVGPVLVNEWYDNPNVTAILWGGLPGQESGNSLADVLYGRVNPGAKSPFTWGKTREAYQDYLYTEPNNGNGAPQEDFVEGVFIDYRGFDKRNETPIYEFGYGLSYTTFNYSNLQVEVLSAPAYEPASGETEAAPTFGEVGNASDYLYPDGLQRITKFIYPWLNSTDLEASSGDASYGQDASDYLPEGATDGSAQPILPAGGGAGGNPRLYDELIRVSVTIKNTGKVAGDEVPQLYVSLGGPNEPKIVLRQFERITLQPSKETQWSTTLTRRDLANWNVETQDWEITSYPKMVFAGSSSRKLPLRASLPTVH

Structure (SMILES)	inhibition in the presence of gluconolactone ([1]; 1 g/l of gluconolactone, PNPG 4 mM, 20 minutes at 40° C.)	activity retained in the presence of gluconolactone ([2]; 1 g/l of gluconolactone)	activity retained in the presence of gluconolactone ([2]; 10 g/l of gluconolactone) [%]	inhibition in the presence of gluconolactone ([3]; KLERZYME β-glucosidase, 1 g/l of gluconolactone, PNPG 4 mM, 20 minutes at 40° C.)	activity remaining in the presence of glucose ([1]; 25 g/l of glucose, PNPG 4 mM, 20 minutes at 40° C.)	inhibition in the presence of glucose ([1]; 50 g/l of glucose, PNPG 4 mM, 20 minutes at 40° C.)	Ki ([1]; read-out: inhibition constant (Ki) for glucose, with respect to PNPG, Lineweaver-Burk representation, competitive inhibitor) [mM]	activity retained in the presence of glucose ([2]; 25 g/l of glucose)	inhibition in the presence of glucose ([2]; 100 g/l of glucose) [%]	remaining activity at 25000 µg/mL ([3]; 20 min, pH 4.4, read-out: activity remaining in the presence of glucose) [%]	inhibition in the presence of glucose ([3]; KLERZYME β-glucosidase, 50 g/l of glucose, PNPG 4 mM, 20 minutes at 40° C.)
O=C1O[C@H](CO)[C@@H](O)[C@H](O)[C@H]1O [gluconolactone, δ-gluconolactone]	practically completely inhibited	more than 30%	20	practically completely inhibited							
OC[C@H]1OC(O)[C@H](O)[C@@H](O)[C@@H]1O (some centres unmarked) [glucose]					about 15%	practically completely inhibited	3.5	about 80%	57	~10	practically completely inhibited
